Measured values from publication PMC10706425, “Enhancing the Antimicrobial Properties of Peptides through Cell-Penetrating Peptide Conjugation: A Comprehensive Assessment” (International Journal of Molecular Sciences, 2023).
Read-outs that look alike come from different tables or passages of the source.

Legend:
S. aureus (209P strain) = test: Antibacterial activity in liquid medium; assay type: cell-based, Staphylococcus aureus; conditions: 209P strain; Mueller–Hinton broth, 37 °C, 2% DMSO
Source text: (§1) Two S. aureus strains were used: a susceptible strain 209P and a clinical isolate strain 129B (resistant to antibiotics: benzylpenicillin, clindamycin, erythromycin, oxacillin, sulfamethoxazole, and vancomycin). Two MRSA strains were included: a susceptible strain ATCC 43300 (resistant to antibiotics: methicillin, oxacillin (beta-lactam antibiotics), ampicillin (https://www.atcc.org/products/43300 (accessed on 11 November 2023)) and a clinical isolate strain SA 180 (resistant to antibiotics: benzylpenicillin and oxacillin (beta-lactam antibiotics), ciprofloxacin, clindamycin, erythromycin, levomycetin, sulfamethoxazole, and vancomycin). One B. cereus was used: a susceptible strain, IP 5832. Two P. aeruginosa strains were included: a susceptible strain, ATCC 28753, and a resistant strain, 2943. Two E. coli strains were used: a susceptible strain, K12, and a susceptible strain, MG1655.
(§2) Determination of the growth for the bacteria S. aureus strain 209P, MRSA strain ATCC 43300, B. cereus strain IP 5832, P. aeruginosa strain ATCC 28753, and E. coli strain K12 was performed using Mueller–Hinton Broth (MHB) (Sigma-Aldrich, St. Louis, MO, USA). Bacteria of S. aureus (strain 129B) and MRSA (strain SA 180-F) were grown on the brain-heart infusion (BHI) medium, and bacteria of P. aeruginosa (strain 2943) and E. coli (strain MG1655) were grown on the LB medium. The preparation and co-incubation of peptides with bacteria were carried out as described previously. The samples were grown at 37 °C.

MRSA (ATCC 43300 strain) = test: Antibacterial activity in liquid medium; assay type: cell-based, Methicillin-resistant Staphylococcus aureus; conditions: ATCC 43300 strain; Mueller–Hinton broth, 37 °C, 2% DMSO
Source text: as §1, §2

E. coli (K12 strain) = test: Antibacterial activity in liquid medium; assay type: cell-based, Escherichia coli; conditions: K12 strain; Mueller–Hinton broth, 37 °C, 2% DMSO
Source text: as §1, §2

bacteria [1] = test: Antibacterial activity of amyloidogenic fragments alone (bacteria not given); assay type: cell-based; conditions: Table 2 and Table S1
bacteria [2] = conditions: cited from earlier work
Source text: Generally, the mechanisms by which AMPs act against bacteria depend on the properties of the bacterial cell wall. Gram-positive bacteria have a thick peptidoglycan layer, while Gram-negative bacteria have an outer membrane and a thinner peptidoglycan layer, which can impact the effectiveness of different antimicrobial strategies. […] If the peptide contained only the Antp fragment, then, in general, its antimicrobial activity was lower com ...

| Sequence | Peptide Activity in Liquid Medium after 15 h of Incubation (Gentamicin as Positive Control) (S. aureus (209P strain)) | Peptide Activity in Liquid Medium after 15 h of Incubation (Gentamicin as Positive Control) (MRSA (ATCC 43300 strain)) | Peptide Activity in Liquid Medium after 15 h of Incubation (Gentamicin as Positive Control) (E. coli (K12 strain)) | Concentration with antibacterial activity, amyloidogenic fragment alone (bacteria [1]) | Concentration with antibacterial activity, amyloidogenic fragment alone (bacteria [2]) |
| --- | --- | --- | --- | --- | --- |
| ITDFGIFIGL [I10L^P] | 913 µM | 913 µM | 913 µM | 913 µM | – |
| VTDFGVFVEI [Amyloidogenic fragment from S1 T. thermophilus] | – | – | – | – | 913 µM |
